Assay results taken from publication PMC5291098, “Molecular mutagenesis of ppGpp: turning a RelA activator into an inhibitor” (Scientific Reports, 2017).

How the values were obtained:
E. coli RelA = target: T1, E. coli RelA (Escherichia coli, UniProt P0AG20); test: Inhibition of RelA activated by programmed 'starved' ribosomal complexes containing deacylated A-site tRNAPhe; format: biochemical; details: 30 nM RelA, 0.5 μM 70S, 2 μM tRNAPhe, 2 μM tRNAiMet, 2 μM mRNA(MF), 100 μM ppGpp, 0.3 mM [3H]GDP, 1 mM ATP, 5 mM Mg2+; read-out: IC50, 70S(MF:tPhe)
T1 construct: made in house
T1 sequence (P0AG20 whole entry): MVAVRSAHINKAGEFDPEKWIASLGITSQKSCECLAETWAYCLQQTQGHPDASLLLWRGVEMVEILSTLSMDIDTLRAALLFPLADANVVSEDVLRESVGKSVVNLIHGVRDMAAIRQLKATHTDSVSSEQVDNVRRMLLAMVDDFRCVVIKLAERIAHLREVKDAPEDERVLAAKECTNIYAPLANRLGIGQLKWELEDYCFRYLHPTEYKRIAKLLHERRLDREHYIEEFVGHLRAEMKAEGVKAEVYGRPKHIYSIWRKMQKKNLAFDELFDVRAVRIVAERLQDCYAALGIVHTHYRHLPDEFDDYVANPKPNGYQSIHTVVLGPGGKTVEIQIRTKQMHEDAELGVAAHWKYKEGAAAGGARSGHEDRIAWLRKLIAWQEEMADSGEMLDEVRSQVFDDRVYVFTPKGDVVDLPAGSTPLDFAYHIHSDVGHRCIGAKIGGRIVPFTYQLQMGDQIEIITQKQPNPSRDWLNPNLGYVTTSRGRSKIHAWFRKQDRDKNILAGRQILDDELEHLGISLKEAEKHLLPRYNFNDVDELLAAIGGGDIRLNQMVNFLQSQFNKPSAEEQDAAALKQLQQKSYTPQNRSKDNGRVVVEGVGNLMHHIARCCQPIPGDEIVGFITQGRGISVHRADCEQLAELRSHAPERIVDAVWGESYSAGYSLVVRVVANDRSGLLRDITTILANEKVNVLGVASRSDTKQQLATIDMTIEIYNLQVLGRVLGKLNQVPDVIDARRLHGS
Method: Screening was performed in a cost-efficient way using RelA activated by the presence of vacant 70S ribosomes and 100 μM ppGpp. However, to become fully active, RelA requires the presence of ‘starved’ ribosomal complexes containing deacylated A-site tRNA[17]. We therefore prepared ‘starved’ complexes using model mRNA coding for fMetPhe (MF) dipeptide and purified deacylated tRNAs tRNA^Phe and tRNA^fMeti[42] to test the efficiency of DR-4250 and DR-M014 in this more physiologically relevant system (Fig. 4a,b).
Figure 4 Functional studies of DR-M014 and DR-4250 with programmed ribosomal complexes. (a,b) Inhibition of RelA activated by starved ribosomal complexes containing deacylated A-site tRNA^Phe. […]
Both EF-G GTPase reaction and ppGpp synthesis by RelA were followed by TLC analysis followed by scintillation counting according to Mechold and colleagues, with modifications1. […] TLC was run in buffer, plates dried, cut into sections guided by UV-shadowing and 3H radioactivity was quantified by scintillation counting in Optisafe-3 (Fisher) scintillation cocktail on Perkin Elmer Tricarb 2810TR counter. Conversion of substrate to product was quantified as described in Shyp et al. (2012)2. […]
Screening: all experiments were performed in HEPES:Polymix, Mg2+ of 5 mM, 37 °C. […] Inhibition efficiency (IC50) was calculated using 4-parameter logistic model (Hill equation) as per Sebaugh (2011)3. […]

E. coli EF-G = system: T2, E. coli EF-G; format: biochemical; details: up to 1 mM
T2 construct: made in house
Method: Thin layer chromatography (TLC) analysis of nucleotide mixtures
Both EF-G GTPase reaction and ppGpp synthesis by RelA were followed by TLC analysis followed by scintillation counting according to Mechold and colleagues, with modifications1. Time points from the reaction mixtures (5 μl, see below for details) were quenched by addition 4 μl 70% formic acid supplemented with a cold nucleotide standard used for UV-shadowing (10 mM GDP and 10 mM GTP) and spotted on PEI-TLC plates (Macherey-Nagel). TLC was run in buffer, plates dried, cut into sections guided by UV-shadowing and 3H radioactivity was quantified by scintillation counting in Optisafe-3 (Fisher) scintillation cocktail on Perkin Elmer Tricarb 2810TR counter. Conversion of substrate to product was quantified as described in Shyp et al. (2012)2. […]
GTPase assays with E. coli EF-G
The reaction mixture contained 0.5 μM 70S, 0.1 μM EF-G, in HEPES:Polymix (25 mM Hepes 7.5/ 1 mM DTT / 5 mM Mg2+) pre-incubated for 2 minutes at 37°C prior to addition of 300 μM [3H]GTP substrate (Hartman), after which time points (5 μl) taken, quenched with formic acid and analyzed by TLC (see above). […]

## Nc1nc2c(ncn2C2OC(COP(=O)(O)OCP(=O)(O)O)C(OP(=O)(O)OCP(=O)(O)O)C2O)c(=O)[nH]1 (stereo not shown) [DR-4250, Guanosine 3’,5’-di(phosphonomethoxyphosphate)]
E. coli RelA
  IC50: 41 ± 7 µM
E. coli EF-G
  Inhibitory effect on EF-G GTPase activity (in words): no inhibitory effect

## Nc1nc2c(ncn2C2CCN(C(=O)P(=O)(O)O)CC2)c(=O)[nH]1 [DR-M014]
E. coli RelA
  IC50: 155 ± 14 µM
E. coli EF-G
  Inhibitory effect on EF-G GTPase activity (in words): no inhibitory effect
